Data set [1] has as its target T1, RBP4-TTR interaction (Homo sapiens (Human), UniProt P02753). Nature of the data set: TR-FRET (HTRF) assay for retinol-induced RBP4-TTR interaction. In kind it is biochemical. Particulars: in the presence of 1 μM retinol; read-out: HTRF assay for antagonists of RBP4-TTR interaction: IC50. An excerpt: Binding of a desired RBP4 antagonist displaces retinol and induces hindrance for RBP4-TTR interaction resulting in the decreased FRET signal (FIG. 7). Bacterially expressed MBP-RBP4 and untagged TTR were used in this assay. […] Following cell lysis, recombinant RBP4 was purified from the soluble fraction using the ACTA FPLC system (GE Healthcare) equipped with the 5-ml the MBP Trap HP column. Human untagged TTR was purchased from Calbiochem. Untagged TTR was labeled directly with Eu^3+ Cryptate-NHS using the HTRF Cryptate Labeling kit from CisBio following the manufacturer's recommendations. HTRF assay was performed in white low volume 384 well plates (Greiner-Bio) in a final assay volume of 16 μl per well. The reaction buffer contained 10 mM Tris-HCl pH 7.5, 1 mM DTT, 0.05% NP-40, 0.05% Prionex, 6% glycerol, and 400 mM KF. […] Titration of test compounds in this assay was conducted in the presence of 1 μM retinol. All reactions were assembled in the dark under dim red light and incubated overnight at +4° C. wrapped in aluminum foil. TR-FRET signal was measured in the SpectraMax M5e Multimode Plate Reader (Molecular Device). […] The TR-FRET signal was expressed as the ratio of fluorescence intensity: Flu665/Flu620×10,000.
Background: In TR-FRET formats the signal depends on donor and acceptor labels being close together.

For data set [2], the target named is T2, RBP4 (Homo sapiens (Human), UniProt P02753). Nature of the data set: Scintillation proximity (SPA) RBP4 binding assay. Particulars: 10 nM 3H-Retinol, 50 nM biotinylated RBP4. On the procedure:
Scintillation Proximity RBP4 Binding Assay
Untagged human RBP4 purified from urine of tubular proteinuria patients was purchased from Fitzgerald Industries International. It was biotinylated using the EZ-Link Sulfo-NHS-LC-Biotinylation kit from Pierce following the manufacturer's recommendations. Binding experiments were performed in 96-well plates (OptiPlate, PerkinElmer) in a final assay volume of 100 μl per well in SPA buffer (1×PBS, pH 7.4, 1 mM EDTA, 0.1% BSA, 0.5% CHAPS). The reaction mix contained 10 nM ^3H-Retinol (48.7 Ci/mmol; PerkinElmer), 0.3 mg/well Streptavidin-PVT beads, 50 nM biotinylated RBP4 and a test compound. Nonspecific binding was determined in the presence of 20 μM of unlabeled retinol. The reaction mix was assembled in the dark under dim red light. The plates were sealed with clear tape (TopSeal-A: 96-well microplate, PerkinElmer), wrapped in the aluminum foil, and allowed to equilibrate 6 hours at room temperature followed by overnight incubation at +4° C. Radiocounts were measured using a TopCount NXT counter (Packard Instrument Company).
For orientation: SPA uses beads or plates that emit light when radiolabelled molecules are held near them.

In data set [3] the test system is ocular all-trans retinol uptake. Particulars: in vivo; cited from earlier work.
The conditions of data set [4]: in vivo; cited from earlier work.
For data set [5], the target named is T2, RBP4. Particulars: cited from earlier work.
Data set [6] relates to Abca4−/− mice. Particulars: animal model of excessive bisretinoid accumulation; cited from earlier work.
The subject of data set [7] is many cell types, including the retinal pigment epithelium cells. Particulars: cited from earlier work.
For data set [8], the target named is serum RBP4 and retinol (Rattus norvegicus (Rat), UniProt P04916). Particulars: in vivo; cited from earlier work.
In data set [9] the target is T1, RBP4-TTR interaction. Particulars: cited from earlier work.

Broadly, the IC50 is the concentration that inhibits the measured activity by half.

As to `COCCN1CCc2c(C(=O)N3CCC(c4cccc(F)c4C(F)(F)F)CC3)n[nH]c2C1` [Compound 73], the IC50 in data set [1] is 30.6 nM; in data set [2], 8.5 nM.

Consider `CC1=C(/C=C/C(C)=C/C=C/C(C)=C/C(=O)Nc2ccc(O)cc2)C(C)(C)CCC1` [fenretinide, N-(4-hydroxy-phenyl)retinamide], for which the “ocular all-trans retinol uptake and visual cycle” value in data set [3] is “inhibit ocular all-trans retinol uptake and slow down the visual cycle”. For the same molecule, the teratogenicity entry in data set [4] is on record as “teratogenic”. In data set [5], the “binding to RBP4” value is listed as “bind to RBP4” and the “displacement of all-trans retinol from RBP4” value is listed as “displace all-trans retinol from RBP4”. Besides, the A2E production entry in data set [6] is listed as “reduced A2E production”. In data set [7], the induction of apoptosis entry is on record as “extremely active inducer of apoptosis”. Also, the “serum RBP4 and retinol” value in data set [8] was “reduce serum RBP4 and retinol”. Besides, the “disruption of RBP4-TTR interaction” value in data set [9] is recorded as “disrupt the RBP4-TTR interaction”.

The values above are taken from patent US10072016B2, “Substituted 4-phenylpiperidines, their preparation and use” (The Trustees of Columbia University in the City of New York, priority 2014, dated 2018).
